The test system of assay [1] is TNF release from LPS-stimulated monocytes. Nature of the assay: Inhibition of TNF release from LPS-stimulated monocytes. The settings on record: for IC50: Homo sapiens, Monocyte, substance alone, LPS-stimulated monocytes. In kind it is cell-based, human. As for the experimental part:
EDTAized human whole blood was mixed with Hanks' buffer in the ratio 1:1. Histopaque 1077 solution (15 ml) was cautiously overlaid with max. 40 ml of the blood: Hanks' mixture and centrifuged (2000 rpm) at room temperature for 30 min. The band enriched with leukocytes was aspirated off, washed twice with Hanks' buffer and transferred into RPMI 1640 medium with Glutamax I (Gibco BRL, Eggenstein). The monocytes were removed through their adherence to the cell culture bottle over a period of two hours. The cells were then thoroughly washed with medium in order to remove non-adherent cells. The resulting monocytes were cultured in RPMI 1640 medium with 10% heat-inactivated fetal calf's serum (FCS) and 100 U/ml penicillin and 100 μg/ml streptomycin in a CO2 incubator (5% CO2, 96% relative humidity, 37° C.).
Primary monocytes were seeded in 24-well plates at 5×10^5 cells/well. The cells were preincubated with the stated test substances for 30 minutes. LPS was then added, and incubation was continued for a period of 24 h. The supernatants were aspirated off and investigated by ELISA.

In assay [2] the test system is GM-CSF release from LPS-stimulated monocytes. The experiment in a line: Inhibition of GM-CSF release from LPS-stimulated monocytes. In kind it is cell-based, human. Conditions: for IC50: Homo sapiens, Monocyte. As for the experimental part: Inhibition of GM-CSF Release from LPS-Stimulated Monocytes EDTAized human whole blood was mixed with Hanks' buffer in the ratio 1:1. Histopaque 1077 solution (15 ml) was cautiously overlaid with max. 40 ml of the blood: Hanks' mixture and centrifuged (2000 rpm) at room temperature for 30 min. The band enriched with leukocytes was aspirated off, washed twice with Hanks' buffer and transferred into RPMI 1640 medium with Glutamax I (Gibco BRL, Eggenstein). The monocytes were removed through their adherence to the cell culture bottle over a period of two hours. The cells were then thoroughly washed with medium in order to remove non-adherent cells. […] The cells were preincubated with the stated test substances for 30 minutes. LPS was then added, and incubation was continued for a period of 24 h. The supernatants were aspirated off and investigated by ELISA. The amount of secreted human GM-CSF in the cell culture supernatants was determined by using an OptEIA™ human GM-CSF ELISA test (Pharmingen, San Diego). It was carried out in microtiter plates. Anti-human monoclonal antibodies were coupled as antibodies to the plate at 4° C. overnight. This coating and three washes were followed by saturation of nonspecific bindings by means of assay diluent solution™ (PBS with 10% FCS, pH 7.0) (Pharmingen, San Diego) at RT for 1 h. This was followed by incubation with the samples and the standard (recombinant human GM-CSF) at 4° C. overnight. […] All the steps were followed by washing 5 or 7 times with PBS/0.05% Tween 20. The enzyme activity was determined using substrate solution™ (tetramethylbenzidine (TMB) and hydrogen peroxide, Pharmingen, San Diego) as substrate at RT for 30 min. The enzyme-substrate reaction was stopped with 1M phosphoric acid, and the extinction at 450 nm was measured.

The mark [3] stands for this setting: when 10 nM loteprednol was given simultaneously.
Setting [4] is: substance alone, LPS-stimulated primary monocytes, 24 h, read-out: IC50 for GM-CSF release from human monocytes.

Like-named read-outs stand apart in the source and are kept apart here.

As to `O=C(Nc1c(Cl)cncc1Cl)C(=O)c1cn(Cc2ccc(F)cc2)c2ccc(O)cc12` [DFHO, N-(3,5-dichloropyridin-4-yl)-2-[1-(4-fluoro-benzyl)-5-hydroxyindol-3-yl]-2-oxoacetamide], the 50% inhibitory concentration (IC50) in assay [1] worked out at 5.7 µM; in assay [2] (addition of 10 nM loteprednol, read-out: IC50 for DFHO for GM-CSF release in the presence of loteprednol) it was 0.06 µM; in assay [2] (setting [4]), 3.2 µM. In assay [1] (setting [3]), the “reduction in the IC50 for TNF release” value was 99%. Besides, in assay [2] (setting [3]), the “reduction in the IC50 for GM-CSF release” value is listed as 98%.
Consider `CCOC(=O)O[C@]1(C(=O)OCCl)CC[C@H]2[C@@H]3CCC4=CC(=O)C=C[C@]4(C)[C@H]3[C@@H](O)C[C@@]21C` [loteprednol], for which the IC50 in assay [1] worked out at 0.0855 µM; in assay [2] (addition of 5 nM DFHO, read-out: IC50 for loteprednol for GM-CSF release in the presence of DFHO), 0.0134 µM; in assay [2] (setting [4]), 0.0537 µM. Also, the “reduction in the IC50 for TNF release” value in assay [1] (when 5 nM DFHO was given) is given as 65%. Further, the “reduction in the IC50 for GM-CSF release” value in assay [2] (when 5 nM DFHO was given) was 75%.

Source of the values: patent US20050288265A1, “Novel combination of glucocorticoids and pde-4 inhibitors for treating respiratory diseases, allegic diseases, asthma and copd” (priority 2002, published 2005).
